Source: patent publication US10195254B2, “Myristoylated leptin-related peptides and uses thereof” (ALBANY MEDICAL COLLEGE, priority 2014, dated 2019)
Where two headings read alike, the source gives them in different places. Values belong to the compound of their own block, whether it stands above or below them. Where a SMILES comes first, the peptide text is derived from it. Where no end group is shown, it is not given here. [ ]: non-standard residue; d: D form. The star is where a group is joined. Myristoyl = CCCCCCCCCCCCCC(=O)*

Columns and labels:
[1] = tested on: male BKS.Cg-Dock7m+/+Leprdb/J diabetic db/db mice; test: Fasting blood glucose in db/db mice after oral delivery in PBS or 0.3% DDM; type: in vivo; details: oral gavage once daily
Protocol: Studies comparing the effects of oral delivery of myristic acid-conjugated [D-Leu-4]-OB3 in PBS or 0.3% dodecyl maltoside (DDM, Intravail®) on fasting blood glucose in six to seven week-old male BKS.Cg-Dock7^m+/+Lepr^db/J diabetic db/db mice.
Male db/db mice were given increasing concentrations of MA-[D-Leu-4]-OB3 in either PBS or DDM orally by gavage once daily in the evening for 14 consecutive days. Fasting (8 hours) blood glucose levels were measured every other day using an Accu-Chek Nano glucose meter (Roche, Indianapolis, Ind.).

[2] = mouse, in vivo
Protocol: (§5) Three to four week-old male Swiss Webster mice weighing between 12 and 15 g were obtained from Charles River Laboratories (Troy, N.Y., USA). The animals were housed three per cage in polycarbonate cages fitted with stainless steel wire lids and air filters, and supported on ventilated racks (Thoren Caging Systems, Hazelton, Pa., USA) in the Albany Medical College Animal Resources Facility. The mice were maintained at a constant temperature (24° C.) with lights on from 07:00 to 19:00 h, and allowed food and water ad libitum until used for uptake studies.
(§6) For oral and intranasal delivery, MA-[D-Leu-4]-OB3 was dissolved in 0.3% Intravail® (Aegis Therapeutics, San Diego, Calif., USA) reconstituted in sterile deionized water at a concentration of 0.1 mg/100 μL and 0.1 mg/10 μL, respectively. At time zero (0), a single 200 μl SC, IM, or IP injection of mouse MA-[D-Leu-4]-OB3 was given to each of three mice per time point. Intranasal delivery was achieved by lightly anesthetizing the mice with isoflurane (1-4%) and delivering 10 μl of MA-[D-Leu-4]OB3 into the nares using a Gilson® P-20 pipettor. Following peptide administration, the mice were transferred to separate cages for the designated time period.
(§7) One, two, four, six, 18, and 24 h after peptide delivery, the mice were anesthetized with isoflurane (5%) and exsanguinated by cardiac puncture. The blood was collected in sterile non-heparinized plastic centrifuge tubes and allowed to stand at room temperature for 1 h. The clotted blood was rimmed from the walls of the tubes with sterile wooden applicator sticks. Individual serum samples were prepared by centrifugation for 30 min at 2600×g in an Eppendorf 5702R, A-4-38 rotor (Eppendorf North America, Westbury, N.Y., USA), pooled by time point, and stored frozen until assayed for MA-[D-Leu-4]OB3 content.
(§8) MA-[D-Leu-4]-OB3 concentrations in the pooled serum samples were measured with a competitive ELISA, developed and validated by the present inventors, with the following modification: MA-[D-Leu-4]-OB3 was used to construct the standard curve. Cross-reactivity of MA-[D-Leu-4]-OB3 with the polyclonal antibody to [D-Leu-4]-OB3 used in the ELISA was 100%. Each serum sample was assayed in duplicate. Intra- and inter-assay coefficients of variation were 0.03% and 0.2%, respectively.
(§9) Serum concentrations of MA-[D-Leu-4]OB3 vs. time following SC, IP, IM, oral, or intranasal delivery were plotted using the graphics program SigmaPlot 8.0 (SPSS Science, Chicago, Ill., USA). The area under each curve (AUC) was calculated with a function of this program, and expressed as ng/ml/min.
(§10) The period of time required for the serum concentration of MA-[D-Leu-4]OB3 to be reduced to exactly one-half of the maximum concentration achieved following IP, SC, IM, oral, and intranasal administration was calculated using the following formula: t1/2=0.693/kelim
(§11) where kelim represents the elimination constant, determined by plotting the natural log of each of the concentration points in the beta phase of the uptake profiles against time.

[3] = tested on: STZ-induced hyperglycemic male Swiss Webster mice; test: Fasting blood glucose in STZ-induced hyperglycemic mice; type: in vivo
Protocol: (§1) Streptozotocin (STZ)-induced male Swiss Webster mice were used in these studies to examine the effects of MA-[D-Leu-4]-OB3 on body weight gain and insulin sensitivity in an insulin-deficient mouse model of diabetes. Using this model, the insulin sensitizing effects of MA-[D-Leu-4]-OB3 was compared with those of another well-characterized insulin-sensitizing drug, metformin.
(§2) Seven-week old male Swiss Webster mice were rendered hyperglycemic with a single intraperitoneal (ip) dose of 150 mg/kg STZ. Fasting blood glucose levels were measured prior to STZ treatment to establish normal (non-diabetic) glucose levels, and every day thereafter to assess hyperglycemia. Fasting blood glucose levels were routinely 3- to 4-fold higher than normal 4-5 days after STZ treatment.
(§3) Detemir insulin (Levemir®, Novo Nordisk, Malov, Denmark) delivery pens were used to dispense 0.025 U/100 μL phosphate buffered saline (PBS), and delivered by subcutaneous (sc) injection twice daily between 8:00 and 9:00 a.m. and 4:00 and 5:00 p.m. for 14 days. MA-[D-Leu-4]-OB3 (NeoBiolab, Cambridge, Mass.) and metformin (Sigma Aldrich, St. Louis, Mo.) were dissolved in 0.3% dodecyl maltoside (DDM, Intravail®, Aegis Therapeutics, San Diego, Calif.) reconstituted in sterile deionized water, and delivered twice daily by oral gavage between 8:00 h and 9:00 h and 16:00 h and 17:00 h at a concentration of 5 mg/kg/100 μL or 100 mg/kg/100 uL, respectively, for 14 days.
(§4) On day zero and each day thereafter, food and water intake were measured, and the mice were weighed in the morning between 8:00 h and 9:00 h. To assure fasting (8 hour) glucose levels on the days blood glucose was measured, food was removed from the cages between 8:00 h and 9:00 h and replaced immediately after measurement.

[4] = mouse, in vivo; remark: listed apart in the source
Protocol: as §5, §6, §7, §8, §9, §10, §11

[5] = Body weight gain, food and water intake in STZ-induced hyperglycemic mice; type: in vivo, male Swiss Webster mice
Protocol: as §1, §2, §3, §4

[6] = in vivo, cited from earlier work

period of absorption [2]: 2 to 6 h | relative bioavailability [2]: 5.3 | Plasma CL ([2]; im, 0.1 mg): 0.12 mL/min | clearance ([2]; im, 0.1 mg): 0.12 mL/min | t1/2 ([2]; im, 0.1 mg): 5.9 h | reduction of Cmax ([2]; inhaled or intranasal): 80% | relative bioavailability ([2]; inhaled or intranasal): 1.0 | Plasma CL ([2]; inhaled or intranasal, 0.1 mg): 0.63 mL/min | Vd ([2]; inhaled or intranasal, 0.1 mg): 447.0 mL | clearance ([2]; inhaled or intranasal, 0.1 mg): 0.63 mL/min | relative bioavailability ([2]; ip): 7.7 | Clearance from the plasma ([2]; ip, 0.1 mg): 0.08 mL/min | Vd ([2]; ip, 0.1 mg): 30.9 mL | clearance ([2]; ip, 0.1 mg): 0.0798 mL/min | t1/2 ([2]; ip, 0.1 mg): 4.5 h | reduction of Cmax ([2]; po): 31% | relative bioavailability ([2]; po): 1.8 | Plasma CL ([2]; po, 0.1 mg): 0.36 mL/min | Vd ([2]; po, 0.1 mg): 900.8 mL | clearance ([2]; po, 0.1 mg): 0.36 mL/min | relative bioavailability ([2]; sc): 11.7 | Plasma CL ([2]; sc, 0.1 mg): 0.05 mL/min | Vd ([2]; sc, 0.1 mg): 8.6 mL | clearance ([2]; sc, 0.1 mg): 0.05 mL/min | half-life ([4]; half-life): ≤ 28 h | AUC ([4]; im, 0.1 mg): 842 µg·h/mL | Cmax ([4]; im, 0.1 mg): 89800 ng/mL | Tmax ([4]; im, 0.1 mg): 2 h | half-life ([4]; im, 0.1 mg, t1/2): 5.5 h | AUC ([4]; inhaled or intranasal, 0.1 mg): 158 µg·h/mL | Cmax ([4]; inhaled or intranasal, 0.1 mg): 10000 ng/mL | Tmax ([4]; inhaled or intranasal, 0.1 mg): 6 h | half-life ([4]; inhaled or intranasal, 0.1 mg, t1/2): 8.2 h | AUC ([4]; ip, 0.1 mg): 1210 µg·h/mL | Tmax ([4]; ip, 0.1 mg): 2 h | half-life ([4]; ip, 0.1 mg, t1/2): 4.1 h | AUC ([4]; po, 0.1 mg): 278 µg·h/mL | Cmax ([4]; po, 0.1 mg): 14400 ng/mL | Tmax ([4]; po, 0.1 mg): 4 h | half-life ([4]; po, 0.1 mg, t1/2): 28.9 h | AUC ([4]; sc, 0.1 mg): 1830 µg·h/mL | Tmax ([4]; sc, 0.1 mg): 2 h | half-life ([4]; sc, 0.1 mg, t1/2): 2 h
Compound: CCCCCCCCCCCCCC(=O)N[C@@H](CO)C(=O)N[C@@H](CS)C(=O)N[C@@H](CO)C(=O)N[C@H](CC(C)C)C(=O)N1CCC[C@H]1C(=O)N[C@@H](CCC(N)=O)C(=O)N[C@H](C(N)=O)[C@@H](C)O [MA-[D-Leu-4]-OB3] (Myristoyl-SCS[dL]PQT-NH2)
fasting blood glucose levels ([1]; 100 or 250 mcg/day in 0.3% DDM, 14 days): significantly reduced | fasting blood glucose levels ([1]; 250 mcg/day in 0.3% DDM, end of 14-day treatment): reduced to levels seen in non-diabetic BKS mice | fasting blood glucose levels ([1]; 250 or 500 mcg/day in PBS, after 14 days): unchanged from those in control mice receiving PBS alone | effect on fasting blood glucose levels ([3]; 14 day study, combination: within two days and throughout the study): very little effect | blood glucose % of initial ([3]; after 14 days): 98.8% | blood glucose Change ([3]; after 14 days): -6 mg/dL | Initial blood glucose ([3]; baseline, fasting): 507.0 ± 6.0 mg/dL | reduction of fasting blood glucose levels ([3]; end of 14-day test period versus beginning): 1.2% | Final blood glucose ([3]; fasting, after 14 days twice daily: MA-[D-Leu-4]-OB3 5 mg/kg oral, metformin 100 mg/kg oral, insulin 0.025 U sc): 501.0 ± 12.3 mg/dL | times more effective than metformin in improving insulin sensitivity ([3]; on a mass basis, 10 mg/kg/day vs. 200 mg/kg/day): 20 times | times more effective than metformin in improving insulin sensitivity ([3]; on a molar basis): 6.1 times | heavier at the end of the 14-day test period (body weight gain) [5]: 8.1% | Cumulative food intake ([5]; 14 days): 103.3 ± 2.3 gm/mouse | Cumulative water intake ([5]; 14 days): 452.5 ± 6.4 mL/mouse | body weight % of initial ([5]; after 14 days): 108.1% | body weight Change ([5]; after 14 days): +2.0 gm | Final body weight ([5]; after 14 days twice daily: MA-[D-Leu-4]-OB3 5 mg/kg oral, metformin 100 mg/kg oral, insulin 0.025 U sc): 26.8 ± 1.6 gm | Initial body weight ([5]; baseline, STZ mice): 24.8 ± 1.4 gm

Compound: [D-Leu-4]-OB3: synthetic peptide amide with leptin-like activity that has the sequence SCSLPQT (SEQ ID NO:1); non-myristoylated comparator (SCS[dL]PQT-NH2)
AUC ([6]; im, 1 mg): 1,481,060 ng/ml/min | Cmax ([6]; im, 1 mg): 46,566 ng/ml | Plasma CL ([6]; im, 1 mg): 0.68 mL/min | Tmax ([6]; im, 1 mg): 0.083 h | Vd ([6]; im, 1 mg): 29.4 mL | t1/2 ([6]; im, 1 mg): 0.6 h | AUC ([6]; inhaled or intranasal, 1 mg): 4,336,963 ng/ml/min | Plasma CL ([6]; inhaled or intranasal, 1 mg): 1.37 mL/min | Vd ([6]; inhaled or intranasal, 1 mg): 15.4 mL | t1/2 ([6]; inhaled or intranasal, 1 mg): 0.683 h | AUC ([6]; ip, 1 mg): 1,072,270 ng/ml/min | Cmax ([6]; ip, 1 mg): 22,519 ng/ml | Tmax ([6]; ip, 1 mg): 0.083 h | Vd ([6]; ip, 1 mg): 65.5 mL | clearance ([6]; ip, 1 mg): 0.93 mL/min | t1/2 ([6]; ip, 1 mg): 0.817 h | AUC ([6]; po, 1 mg): 552,710 ng/ml/min | Cmax ([6]; po, 1 mg): 8,574 ng/ml | Plasma CL ([6]; po, 1 mg): 1.81 mL/min | Tmax ([6]; po, 1 mg): 0.833 h | Vd ([6]; po, 1 mg): 47.9 mL | t1/2 ([6]; po, 1 mg): 0.333 h | AUC ([6]; sc, 1 mg): 1,182,498 ng/ml/min | Cmax ([6]; sc, 1 mg): 35,063 ng/ml | Plasma CL ([6]; sc, 1 mg): 0.85 mL/min | Tmax ([6]; sc, 1 mg): 0.083 h | Vd ([6]; sc, 1 mg): 42.9 mL | t1/2 ([6]; sc, 1 mg): 0.567 h | period of absorption [6]: 5 to 60 min
